Laboratory results published in patent US20080207537A1, “Topical Ungual Formulations” (priority 2005, published 2008).

Columns and labels:
[1] = Redox potential measurement against Ag/AgCl reference electrode; type: physicochemical; settings: n = 3
[2] = 14C mannitol nail penetration study (nail diffusion cell); type: in vitro ADME, human; settings: single penetration enhancer
Protocol: The single penetration enhancers were made up in the appropriate solvent and spiked with ^14C mannitol (10 μl of the stock ^14C mannitol). When more than one penetration enhancer was applied to the nails, only the last penetration enhancer was spiked with ^14C mannitol prior to nail application. ^14C mannitol with no penetration enhancer was used as a control.
Pre-calibrated nail diffusion cells were assembled with full thickness human nail. The receiver fluid, which consisted of a 20% ethanol/water mixture, was put into the receiver well up to the etched mark on the side arm. A magnetic follower was inserted and the cells were then placed on a magnetic stirrer in a water bath maintained at 32° C. Cells were checked for leakage and air bubbles. […] This was to ensure that no cells contained any residual radioactivity and these readings were also taken as the background for each cell. […]
After taking the background reading (described in the section above) 50 μl of ^3H water (ca. 18000 dpm) was placed on top of the nail in the assembled nail diffusion cell, using a pre-calibrated Gilson pipette. […] This value was used to normalise each nail and, if values of radioactivity were considered too high, then cells were rejected due to leaks. […]

[3] = pH of the agent solutions; type: physicochemical; settings: for Mean pH: n = 3

SMILES: O=C(O)CS [Thioglycolic acid]
- Mean Redox Potential ([1]; 0.5M concentration): −132.8 mV
- Mean Redox Potential ([1]; 5% TA solution, approximate pH 2 (adjusted using NaOH)): −70.4
- Mean Redox Potential ([1]; 5% TA solution, approximate pH 3 (adjusted using NaOH)): −133.1
- Mean Redox Potential ([1]; 5% TA solution, approximate pH 4 (adjusted using NaOH)): −166.7
- Mean Redox Potential ([1]; 5% TA solution, approximate pH 5 (adjusted using NaOH)): −179.5
- Mean Redox Potential ([1]; 5% TA solution, approximate pH 6 (adjusted using NaOH)): −192.9
- Mean Redox Potential ([1]; 5% TA solution, approximate pH 8 (adjusted using NaOH)): −272.3
- Mean Redox Potential ([1]; 5% TA solution, approximate pH 10 (adjusted using NaOH)): −386.5
- Mean Redox Potential ([1]; 5% TA solution, approximate pH 11 (adjusted using NaOH)): −433.8
- Mean Redox Potential ([1]; TA concentration 0.001% w/w): −47.7
- Mean Redox Potential ([1]; TA concentration 0.005% w/w): −56.6
- Mean Redox Potential ([1]; TA concentration 0.01% w/w): −67.5
- Mean Redox Potential ([1]; TA concentration 0.05% w/w): −85.6
- Mean Redox Potential ([1]; TA concentration 0.1% w/w): −97.4
- Mean Redox Potential ([1]; TA concentration 1% w/w): −119.8
- Mean Redox Potential ([1]; TA concentration 2.5% w/w): −126.5
- Mean Redox Potential ([1]; TA concentration 5% w/w): −131.5
- Mean Redox Potential ([1]; TA concentration 7.5% w/w): −132.7
- Mean Redox Potential ([1]; TA concentration 10% w/w): −132.8
- Mean Redox Potential ([1]; TA concentration 20% w/w): −128.7
- permeation of 14C mannitol through full thickness human nail ([2]; Saturated TA (50%), rank among the enhancers (FIG. 2)): best penetration enhancer of mannitol
- permeation of 14C mannitol through full thickness human nail ([2]; TA 5%, compared to DTT (FIG. 2)): drop below that of the DTT
- Mean pH ([3]; 0.5M concentration): 2.13
- pH of solution prior to application ([3]; 5% concentration, solution applied to nail (FIG. 7)): 2.12
- Mean pH ([3]; TA concentration 0.001% w/w): 2.97
- Mean pH ([3]; TA concentration 0.005% w/w): 3.12
- Mean pH ([3]; TA concentration 0.01% w/w): 3.05
- Mean pH ([3]; TA concentration 0.05% w/w): 2.53
- Mean pH ([3]; TA concentration 0.1% w/w): 2.66
- Mean pH ([3]; TA concentration 1% w/w): 2.23
- Mean pH ([3]; TA concentration 2.5% w/w): 1.71
- Mean pH ([3]; TA concentration 5% w/w): 1.85
- Mean pH ([3]; TA concentration 7.5% w/w): 1.76
- Mean pH ([3]; TA concentration 10% w/w): 1.83
- Mean pH ([3]; TA concentration 20% w/w): 1.61
